Test results taken from US7407763B2, “Systems and methods for detecting and regulating metastasis” (The Regents of the University of Michigan, priority 2004, dated 2008).

Columns and labels:
RKIP mRNA expression = RKIP mRNA expression in RWPE cells by real-time RT-PCR; format: cell-based, human
RKIP mRNA levels = RKIP mRNA levels in LNCaP cells by real time PCR; format: cell-based, human; settings: IL-6 50 ng/ml, 6 or 24 hours (FIG. 7)
Method: LNCaP cells were plated in culture dishes and treated with IL-6 (50 ng/ml) or vehicle for 6 or 24 hours. Total RNA was collected and subjected to real time PCR for RKIP mRNA levels. RKIP mRNA levels were normalized to β-galactosidase mRNA levels.

C4-2B cells = assay: In vitro invasion assay with protein kinase inhibitors; format: cell-based, human; settings: in vitro invasion through matrix, C4-2B cells (FIG. 4)
Method: The invasiveness of control and sense or antisense-transfected cell clones was evaluated in 24-well transwell chambers (Costar, Cambridge, Mass.) as directed by the manufacturer. Briefly, the upper and lower culture compartments were separated by polycarbonate filters with 8-μm pore size. Some wells were coated with 100 μg/cm^2 collagen matrix (MATRIGEL, Collaborative Biomedical Products, Bedford, Mass.) that was reconstituted by adding 0.5 ml of serum-free T medium for 2 hours. […] Cell penetration through the membrane was quantified by staining the porous membrane with a Diff-Quik stain kit. The numbers of cells that penetrated through the membrane were counted in five microscopic fields (×200) per filter. Invasive ability was then determined as the proportion of cells that invaded through the matrix-coated membrane relative to the number of cells that migrated through the uncoated membrane (baseline migration). […]
Furthermore, because RKIP inhibits tumor invasiveness, it was investigated whether RKIP exerts its metastasis suppressor gene function through regulation of MEK activation. […] Accordingly, the effect of a variety of kinase inhibitors was evaluated, including a MEK inhibitor (PD098059) on in vitro invasion. […]

putative RKIP ARE = settings: RWPE nuclear extracts, 5 nM DHT, as early as 30 min
Method: The reaction was allowed to proceed for 30 min at room temperature.

human RKIP promoter = settings: RWPE cells, DHT 5 nM, 10 nM, 24 h, compared to basal activity

## CC(O)(CS(=O)(=O)c1ccc(F)cc1)C(=O)Nc1ccc(C#N)c(C(F)(F)F)c1 (stereo not drawn) [Casodex]
RKIP mRNA expression; RWPE cells, 24 h, casodex in the presence of DHT (FIG. 12B)
  effect on DHT induction of RKIP mRNA expression: substantially reduced

## IL-6: the cytokine interleukin-6
RKIP mRNA levels
  RKIP expression in LNCaP prostate cancer cells: reduces RKIP expression

## COc1cccc(-c2cc(=O)c3ccccc3o2)c1N [PD098059]
C4-2B cells
  decrease of invasive ability of C4-2B cells: 41%

## C[C@]12CCC(=O)C[C@@H]1CC[C@@H]1[C@@H]2CC[C@]2(C)[C@@H](O)CC[C@@H]12 [DHT, dihydrotestosterone]
RKIP mRNA expression
  RKIP expression in cells treated with CHX: increase in RKIP expression
  increase in RKIP mRNA at 1 nM: significant (P<0.01) increase
  induction of RKIP expression at 0.1 nM: almost no induction
  maximum induction of RKIP mRNA expression: 1.5 fold
RKIP mRNA expression; RWPE cells, 24 h, >=5 nM DHT
  induction of RKIP expression at saturating amounts (>=5 nM): significant (P<0.01) induction
RKIP mRNA expression; RWPE cells, 24 h, various concentrations of DHT
  RKIP mRNA expression versus DHT concentration: dose-dependent increase
Putative RKIP ARE
  DNA binding activity to RKIP ARE probe: rapid increase in DNA binding activity
Human RKIP promoter
  increase in luciferase activity of RKIP promoter plasmid: approximately 3 fold

## C[C@@H]1C[C@@H]([C@H](O)CC2CC(=O)NC(=O)C2)C(=O)[C@@H](C)C1 [CHX, cycloheximide]
RKIP mRNA expression; RWPE cells, 24 h, CHX alone (FIG. 12C)
  expression of RKIP, treatment alone: did not change the expression of RKIP
